The results in this text go back to patent US20040235920A1, “Novel use of substituted aminomethyl chromans for the treatment of movement disorders and of adverse effects induced by drugs administered to treat extrapyramidal movement disorders” (priority 2001, published 2004).

SMILES strings stand for the structures.

The subject of assay [1] is rats challenged with haloperidol. The assay can be described thus: Neuroleptics-induced muscle rigidity in rats (haloperidol). Type of assay: in vivo, rat. As to conditions: resistance to passive flexion and extension of the hind limb. The text has this: A typical animal model is neuroleptics-induced muscle rigidity in rats according to S. Wolfarth et al., Arch. Pharmacol. 1992; 345: 209-212. Rats are challenged with the conventional neuroleptic drug haloperidol which enhances muscle tone. Muscle tone is electromechanically measured as the resistence to passive flexion and extension of the hind limb. (−)-(R)-2-{4-[[3,4-dihydro-2H-benzopyran-2-yl)-methyl]amino]butyl}-1,2-benzoisothiazol-3-(2H)-on-1,1-dioxide or a pharmaceutically acceptable salt thereof decreased the muscle tone enhanced by haloperidol.

Assay [2] relates to Weaver mutant mouse. The assay can be described thus: Weaver mutant mouse, locomotor activity. Type of assay: in vivo. As to conditions: activity cages. The source says:
(§1) Typical genetic models in mutant animals are the Campus Syndrome in the Pietrain pig according to A. Richter et al. (Exp. Neurology, 1995; 134: 205-213) or the Weaver mutant mouse according to J. R. Simon and B. Ghetti (Mol. Neurobiol., 1994; 9: 183-189). In the Campus Syndrome model, these mutant pigs show a high-frequency tremor when standing and during locomotion, but not while lying at rest. Assessment of tremor is made by accelerometric recording. In the Weaver mutant mouse, degenerative cerebellar atrophy is found in association with tremor, gait instability, and toppling over the sides after a few steps.

The subject of assay [3] is cataleptic rat. The assay can be described thus: Reversal of catalepsy in rats (oral ED50). Particulars: result in words. The format is in vivo. As for the experimental part: Extrapyramidal motor side effects in e.g. rodents are measured by the ability of a drug to induce catalepsy. Catalepsy is defined as a state where an animal continues to remain in an unnormal (nonphysiological ‘uncomfortable’) posture for a long time (e.g.: M. E. Stanley and S. D. Glick, Neuropharmacology, 1996; 15: 393-394; C. J. E. Niemegeers and P. Janssen, Life Sci., 1979, […]). For example, if a hindpaw of a rat is placed on an elevated level, e.g. a platform elevated 3 cm above ground level, a normal rat immediately withdraws the hindpaw from the platform to the ground level. A cataleptic rat remains in this unnatural posture even for minutes.

For assay [4], the system named is 3-NP treated rats. The assay can be described thus: Systemic 3-nitropropionic acid (3-NP) model in rats, nocturnal activity. The format is in vivo, rat. The protocol:
A typical animal model is the systemic 3-nitropropionic acid (3-NP) model in rats according to C. V. Borlongan et al., Brain Res., 1995; 697: 254-257. Rats are treated with injections of the selective striatal neurotoxin 3-NP i.p. every fourth day (C. V. Borlongan et al., Brain Res. Protocols, 1997; 1: 253-257). After two injections of 3-NP, rats display nocturnal hyperactivity reflecting symptoms of early Huntington's disease, whereas rats treated with four injections of 3-NP display nocturnal akinesia (hypoactivity) reflecting symptoms of late Huntington's disease. Nocturnal activity is automatically measured in conventional acitivity cages by infrared beams. (−)-(R)-2-{4-[[3,4-dihydro-2H-benzopyran-2-yl)-methyl]amino]butyl}-1,2-benzoisothiazol-3-(2H)-on-1,1-dioxide or a pharmaceutical acceptable salt thereof reduced both the nocturnal hyperactivity and akinesia.

Assay [5] concerns Pietrain pig. The assay can be described thus: Campus Syndrome in the Pietrain pig, tremor. The format is in vivo. As to conditions: when standing and during locomotion.
From the text: as §1

Assay [6] deals with patients with Huntington's disease. The assay can be described thus: Add-on trial in patients with Huntington's disease (AIMS, UHDRS). Type of assay: in vivo, human. As to conditions: 2.5 to 20 mg b.i.d., typical trial. As for the experimental part:
A typical trial to establish the effect of the compounds according to the invention on chorea, voluntary motor performance, and functional disability in patients with Huntington's disease encompasses 32 genetically diagnosed patients. (−)-(R)-2-{4-[[3,4-dihydro-2H-benzopyran-2-yl)-methyl]amino]butyl}-1,2-benzoisothiazol-3-(2H)-on-1,1-dioxide monohydrochloride or placebo is administered as “add on” to the conventional treatment, which is maintained unchanged during the whole study. The dose of blinded medication is titrated over a period of 3 weeks in a range from 2.5 to 20 mg b.i.d. Then the medication is held constant for 1 week. Assessments are performed in the week before and at the last day of the trial. Chorea is scored using the abnormal involuntary movement scale (AIMS, W. Guy, in: ECDEU assessment manual. Rockville Md: US dept. of health, education and welfare, 1976: 534-537), the unified Huntington's disease rating scale (UHDRS, Huntington study group, 1996, Movement Disord, 11: 136-42), and judgement of video recordings. Voluntary motor performance is assessed using the UHDRS motor scale. Patients and their partners complete a questionnaire regarding functional disability.

Assay [7] concerns mutant dystonic hamster. The assay can be described thus: Mutant dystonic hamster, scoring of dystonic attacks. The format is in vivo. As to conditions: scoring system. The text has this:
A typical animal model is the mutant dystonic hamster according to A. Richter and W. Löscher, Prog. Neurobiol. 1998; 54: 633-677. In this genetically dystonic hamsters, dystonic attacks are provoked by taking the animal from the home cage and placing it on a balance. The dystonic syndrome consists of a sequence of abnormal movements, and the severity of the single symptoms is rated by a scoring system.

Assay [8] relates to neuroleptics sensitized monkey. Description: Neuroleptics sensitized monkey, haloperidol challenge. The format is in vivo. As to conditions: after haloperidol challenge, scoring system. The source says:
Another typical animal model is the neuroleptics sensitized monkey according to D. E. Casey, Psychopharmacology, 1996; 124: 134-140. Monkeys treated repeatedly with conventional neuroleptics are highly sensitive to a subsequent challenge dose of neuroleptic drugs. When challenged, the monkeys immediately show extrapyramidal motor side effects such as dystonia, dyskinesias, akathisia, and bradykinesia which are rated by a scoring system. The conventional neuroleptic drug haloperidol is given as a challenge.

The subject of assay [9] is oxotremorine-induced tremor. The assay can be described thus: Oxotremorine-induced tremor (rating scale). The format is in vivo. The protocol:
A typical animal model for drug-induced tremors is the oxotremorine-induced tremor (e.g. H. Hallberg and O. Almgren, Acta Physiol. Scand., 1987; 129: 407-13; J. G. Clement and W. R. Dyck, J. Pharmacol. Meth., 1989; 22: 25-36). Oxotremorine induces tremor which is measured by a rating scale. (−)-(R)-2-{4-[[3,4-dihydro-2H-benzopyran-2-yl)-methyl]amino]butyl}-1,2-benzoisothiazol-3-(2H)-on-1,1-dioxide or one of its pharmaceutically acceptable salt inhibit oxotremorine-induced tremors.

Assay [10] deals with rats with posthypoxic myoclonus. Description: Posthypoxic myoclonus in rats after cardiac arrest. The format is in vivo, rat. As to conditions: after 8 minutes cardiac arrest. The protocol: A typical animal model for myoclonus is myoclonus induced by an acute hypoxic episode according to D. D. Truong et al., Mov. Dsiord., 1994; 9: 201-206). In this model of posthypoxic myoclonus, rats undergo a cardiac arrest for 8 minutes and are resuscitated thereafter. Myoclonic jerks occur spontaneously but can be provoked by auditory stimulation, too, worsening over the days following cardiac arrest.

With `O=C1c2ccccc2S(=O)(=O)N1CCCCNC[C@H]1CCc2ccccc2O1` [(−)-(R)-2-{4-[[3,4-dihydro-2H-benzopyran-2-yl)-methyl]amino]butyl}-1,2-benzoisothiazol-3-(2H)-on-1,1-dioxide], the “muscle tone enhanced by haloperidol” value in assay [1] is reported as “decreased”. Moreover, the locomotor activity entry in [2] was “enhanced locomotor activity”. Also, the “potency in reversing catalepsy” value in assay [3] is “extraordinary potency in reversing catalepsy”. For the same compound, the “nocturnal akinesia (hypoactivity)” value in assay [4] (after four injections of 3-NP (late Huntington's disease)) is “reduced”. In assay [4] (after two injections of 3-NP (early Huntington's disease)), the nocturnal hyperactivity result is listed as “reduced”. In assay [5], the “Campus Syndrome tremor” value was “reduced disabling tremor when standing and during locomotion”. Also, the involuntary motor performance result in assay [6] (AIMS, UHDRS, video) is “significant improvement”. Further, in assay [6] (UHDRS motor scale), the voluntary motor performance entry is on record as “significant improvement”. The “severity of dystonic symptoms” value in [7] is “dose-dependently reduced”. Besides, the “extrapyramidal motor side effects (dystonia, dyskinesias, akathisia, bradykinesia)” value in assay [8] is “dose-dependently reduce”. For the same compound, the oxotremorine-induced tremors result in [9] was “inhibit”. Besides, in assay [10], the “number of auditory-evoked myoclonic jerks” value is given as “dose-dependently reduce” and the “number of spontaneous myoclonic jerks” value is on record as “dose-dependently reduce”.
